In general, EC50 refers to the concentration needed to bring the measured effect to its halfway point.

The structures appear in SMILES notation.

For test [1], the system named is fibroblasts with the Mediterranean variant. Kind of test: Viability of fibroblasts, with and without siRNA knockdown. It is filed as cell-based, human. The protocol:
Cell viability was measured using a Cell-Counting Kit-8 (CCK-8, Dojindo), utilizing WST-8 [2-(2-methoxy-4-nitrophenyl)-3-(4-nitrophenyl)-5-(2,4-disulfophenyl)-2H-tetrazolium monosodium salt, according to the manufacturer's instructions. Cells were subjected to serum starvation for 48 hours before measurement. Cells in 100 μL of medium per well were treated with 10 μL of CCK-8 solution and incubated for 2 hours at 37° C. The absorbance was read at 450 nm. Viability of lymphocytes was measured by staining with a 0.4% solution of trypan blue in buffered isotonic salt solution (pH 7.2). The viability was calculated as the number of viable cells (non-stained by the dye) divided by the total number of cells within the grids on the hemacytometer. Cells were treated with 1 μM of the compound 24 hours before the measurement.
Endogenous G6PD was knocked down in each cell line as follows; 2 pmol of siRNA G6PD (Santa Cruz Biotechnology) and 0.5 μg lipofectamine (Invitrogen) were diluted in 10 μL of Opti-MEM medium respectively and incubated for 5 minutes. The diluted siRNA was combined with diluted lipofectamine, which was followed by additional incubation for 20 minutes prior to the addition to cells in a 96-well plate.

The next test deals with human erythrocytes. In words: Erythrocyte refrigerated storage assay, protein leakage. It counts as cell-based. The conditions noted are these: AG1 1 μM. On the procedure: (§1) De-identified blood samples were obtained from the Stanford Blood Center. Erythrocytes were collected by filtering the samples through a cellulose slurry to remove platelets and leukocytes and then washed with saline. G6PD activity was measured (Beutler E. Red cell metabolism: A manual of biochemical methods (3rd edition). Grune & Stratton (1984)). […] A 5% erythrocyte suspension was pre-incubated with 1-5 μM AG1 at 4° C. overnight, which was followed by treatment with (or without) either 1 mM chloroquine (CQ) or 1 mM diamide for 3-4 hours at 37° C. (for hemolysis assay with chloroquine, the mixture was incubated under light). Then centrifugation at 1,000 rpm for 5 minutes was followed. Hemoglobin release in the supernatant was monitored by measuring absorbance at 540 nm. […] After wash, the samples were lysed with 0.1% Triton X-100 (final concentration), and the florescence was analyzed with excitation/emission at 485/525 nm. GSH measurement was determined using a Cayman glutathione assay kit (Cayman Chemicals, 703002). […] The absorbance was read at 412 nm. For storage assay, a 5% erythrocyte suspension was stored at 4° C. with and without 1 μM AG1, and hemolysis and G6PD activity were monitored every week for 28 days to examine whether AG1 improves preservation of erythrocytes over time. Protein leakage was also examined by measuring the absorbance of the supernatant of samples at 280 nm. […]

Another test deals with T1, WT G6PD (Homo sapiens, UniProt P11413).
T1 construct: His (pET-28a) (N, cleaved yes); made in house; host or cells: E. coli C43 (DE3)
T1 sequence (P11413 whole entry): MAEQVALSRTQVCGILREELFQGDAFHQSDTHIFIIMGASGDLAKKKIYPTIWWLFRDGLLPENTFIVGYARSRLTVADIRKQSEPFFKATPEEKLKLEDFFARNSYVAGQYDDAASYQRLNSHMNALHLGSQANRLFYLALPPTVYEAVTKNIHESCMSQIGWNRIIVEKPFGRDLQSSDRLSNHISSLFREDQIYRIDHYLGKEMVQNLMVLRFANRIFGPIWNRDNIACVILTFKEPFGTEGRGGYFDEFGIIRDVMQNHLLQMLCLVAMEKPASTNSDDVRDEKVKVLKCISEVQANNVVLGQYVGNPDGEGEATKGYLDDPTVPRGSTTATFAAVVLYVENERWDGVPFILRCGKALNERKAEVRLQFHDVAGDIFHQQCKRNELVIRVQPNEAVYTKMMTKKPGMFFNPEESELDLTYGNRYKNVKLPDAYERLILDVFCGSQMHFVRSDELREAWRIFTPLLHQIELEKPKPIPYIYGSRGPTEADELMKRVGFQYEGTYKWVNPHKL
In words: WT G6PD enzyme activity, recombinant enzyme. It is filed as biochemical. On the procedure: (§2) Enzyme activity was measured by monitoring NADPH production, which was coupled with diaphorase converting resazurin to fluorescent resorufin (excitation at 565 nm and emission at 590 nm); fluorescent signal was thus proportional to G6PD activity. Assays were performed at 25° C. and run for 5 minutes in buffer containing 50 mM Tris (pH 7.4), 0.5 mM EDTA, 3.3 mM MgCl2, 1 U/ml diaphorase, 0.1 mM resazurin. 10 ng of recombinant enzymes or 10 μg of cell lysates was used for the assay with 10 μM NADP^+ (Sigma) as cofactor and 100 μM G6P (Sigma) as substrate. Steady-state kinetic parameters were obtained by varying concentrations of NADP^+ (0-10 μM) with a constant concentration of G6P (100 μM) and similarly for G6P (0-100 μM) with a constant concentration of NADP^+ (10 μM) with 10 ng of recombinant enzymes. Data analysis was performed using GraphPad Prism software v.6 (GraphPad Software, La Jolla, Calif. USA). Kinetic parameters were obtained by fitting the data to the Michaelis-Menten equation.

For test [2], the target named is T2, Canton G6PD in SH-SY5Y cells (Homo sapiens, UniProt P11413, R459L).
T2 construct: expressed in transfected cells; host or cells: SH-SY5Y neuroblastoma cells
T2 sequence (P11413 2-515 R459L): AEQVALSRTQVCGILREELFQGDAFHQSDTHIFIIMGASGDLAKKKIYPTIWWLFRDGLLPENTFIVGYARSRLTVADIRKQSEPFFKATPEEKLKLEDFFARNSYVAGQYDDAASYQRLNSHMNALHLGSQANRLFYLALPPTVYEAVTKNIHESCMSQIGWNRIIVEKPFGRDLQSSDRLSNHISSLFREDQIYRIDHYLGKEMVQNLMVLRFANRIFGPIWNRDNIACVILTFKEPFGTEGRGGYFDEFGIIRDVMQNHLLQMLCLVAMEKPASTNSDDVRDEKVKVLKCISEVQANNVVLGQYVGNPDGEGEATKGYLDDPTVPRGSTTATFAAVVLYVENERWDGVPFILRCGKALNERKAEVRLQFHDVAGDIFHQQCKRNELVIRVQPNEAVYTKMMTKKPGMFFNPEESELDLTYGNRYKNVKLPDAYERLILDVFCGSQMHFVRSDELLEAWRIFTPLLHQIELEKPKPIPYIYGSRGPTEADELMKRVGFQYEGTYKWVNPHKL
In words: G6PD activity of SH-SY5Y cells expressing Canton variant. It counts as cell-based. On the procedure: as §2
Prior to the cellular-based assays using SH-SH5Y cells, duration of overexpression of WT G6PD and Canton variant was examined by transfecting the cells seeded in a 12-well plate. The genes encoding human WT G6PD and Canton variant were first PCR-amplified, which was then inserted into pcDNA 3.1/myc-His C (ThermoFisher Scientific) using HindIII and XhoI. […]

Another test has as its target T3, Canton G6PD (Homo sapiens, UniProt P11413, R459L).
T3 construct: His (pET-28a) (N, cleaved yes); made in house; host or cells: E. coli C43 (DE3)
In words: Canton G6PD enzyme activity, diaphorase-coupled assay. It is filed as biochemical. On the procedure: as §2
The diaphorase-coupled enzyme assay as described above was used to screen a library of compounds for small molecule activators. The compounds were added to Canton G6PD enzyme reaction mixture at a final concentration of 16.67 μM using Caliper Life Sciences Staccato system with a Twister II robot and a Sciclone ALH3000 (Caliper Life Sciences, Alameda, Calif. USA) integrated with a V&P Scientific pin tool, which was followed by incubation for 3 hours. Addition of G6P then initiated the reaction, which was run for 2.5 minutes. The fluorescent signals were recorded 4 times during the run using Molecular Devices AnalystGT (Molecular Devices, Sunnyvale, Calif. USA). Any compounds showing 30% activation of the enzyme were rescreened in a dose-dependent manner (0-30 μM, duplicate) to identify potential hits.
Based on preliminary results with compound AG1, a variety of compounds of interest were prepared and assessed in G6PD enzyme activation assays, according to the methods described herein.

The target in test [3] is T4, G6PD in human erythrocytes (Homo sapiens, UniProt P11413).
T4 construct: host or cells: human erythrocytes
T4 sequence (P11413 2-515 limits assumed): as the sequence (P11413 2-515 R459L) above, with L458R counted along it
In words: G6PD activity in erythrocytes under oxidative stressors. It is filed as cell-based. The conditions noted are these: drug-induced oxidative stress. The protocol: as §1

In test [4] the target is 6-phosphogluconate dehydrogenase (6PGD) (Homo sapiens, UniProt P52209). Kind of test: Selectivity: dimerization or activity of other NAD/NADP+-dependent enzymes. It counts as biochemical.
Sequence of 6-phosphogluconate dehydrogenase (6PGD) (P52209 whole entry): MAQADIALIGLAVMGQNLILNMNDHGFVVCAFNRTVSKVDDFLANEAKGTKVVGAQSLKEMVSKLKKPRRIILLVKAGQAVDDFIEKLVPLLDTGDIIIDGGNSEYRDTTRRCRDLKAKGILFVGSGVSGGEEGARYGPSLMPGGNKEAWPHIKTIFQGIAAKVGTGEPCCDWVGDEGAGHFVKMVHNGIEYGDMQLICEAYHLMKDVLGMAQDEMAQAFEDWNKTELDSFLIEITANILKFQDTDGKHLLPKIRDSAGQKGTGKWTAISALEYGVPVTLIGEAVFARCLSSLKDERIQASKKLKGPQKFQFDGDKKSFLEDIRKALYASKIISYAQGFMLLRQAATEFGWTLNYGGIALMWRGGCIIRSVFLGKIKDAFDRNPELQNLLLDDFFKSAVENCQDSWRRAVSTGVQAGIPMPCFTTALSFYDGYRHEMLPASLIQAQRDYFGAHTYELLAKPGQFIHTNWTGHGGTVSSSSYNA

T3 sequence (P11413 whole entry R459L): as the sequence (P11413 whole entry) above, with R459L counted along it

Take `SCCNCCc1c[nH]c2ccccc12` [AG1, 2-[2-(1H-indol-3-yl)ethylamino]ethanethiol]: in test [1] (Mediterranean G6PD expression knocked down by siRNA), the rescue of viability entry is listed as “did not rescue”. The molecule further yielded an improvement of viability in test [1] (stress conditions) of 22%. Moreover, the protein leakage entry in the test with human erythrocytes was “decreased”. Also, the “increase of WT G6PD activity over basal activity” value on WT G6PD is given as “about 20%”. Further, the results for the G6PD activity result in test [2] and in test [3] were “mild increase” and “increased”, respectively. The “increase of the activity of Canton G6PD enzyme” value at Canton G6PD (100 μM of AG1) amounted to 70%. The “kcat (turnover number)” value on Canton G6PD (Canton G6PD in presence of AG1) amounted to 296 ± 1 S^−1. Further, the concentration for a half-maximal effect (EC50) at Canton G6PD (read-out: EC50 of activation of Canton G6PD) was ~3 µM. Further, in test [4], the “effect on dimerization or activity” value is given as “no effect”.

The values are drawn from patent US20200223826A1, “Glucose-6-Phosphate Dehydrogenase (G6PD)-Modulating Agents And Methods Of Treating G6PD Deficiency” (The Board of Trustees of the Leland Stanford Junior …, priority 2017, published 2020).
